What was measured:
[1] = system: OE33 (Esophageal Adenocarcinoma); assay: combination Emax (second highest fraction inhibited in the dose matrix, 72 h); higher = more inhibition; extreme values may be limits of the assay
Procedure, shortened: (§1)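 Cell lines in DMEM/F12 or RPMI with 10% FBS were plated in 1536-well plates, held 24 hours at 37°C, 5% CO2, then given two-drug dose matrices for 72 hours (DMSO typically 0.2%). Viability was read by CellTiter-Glo 2.0 luminescence and scaled as inhibition from 0 (vehicle wells) to 1 (blank wells). Combination Emax is the second-highest inhibition in the matrix; Bliss excess is observed combination effect minus expected EA + EB − EA·EB, EA and EB being single-agent effects.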

[2] = system: NCI-H1355 (Lung Adenocarcinoma); assay: as above
Procedure, shortened: as §1

Hey (Ovarian Carcinoma) = assay: Bliss excess, mean over the matrix (fraction); higher = more synergy
Procedure, shortened: as §1

[3] = system: SNU-387 (Hepatocellular Carcinoma); assay: as above
Procedure, shortened: as §1

[4] = system: COLO-668 (Small Cell Lung Carcinoma); assay: as above
Procedure, shortened: as §1

[5] = system: A4-Fuk (B-Lymphoblastic Leukemia); assay: as above
Procedure, shortened: as §1

[6] = system: NCI-H1993 (Lung Adenocarcinoma); assay: as above
Procedure, shortened: as §1

[7] = system: CADO-ES1 (Ewing's Sarcoma); assay: as above
Procedure, shortened: as §1

[8] = system: HCC1500 (Breast Carcinoma); assay: as above
Procedure, shortened: as §1

SK-N-AS (Neuroblastoma) = assay: as above
Procedure, shortened: as §1

[9] = system: SKN (Other Solid Carcinomas); assay: as above
Procedure, shortened: as §1

[10] = system: KMRC-1 (Kidney Carcinoma); assay: as above
Procedure, shortened: as §1

[11] = system: HCC2998 (Colorectal Carcinoma); assay: as above
Procedure, shortened: as §1

[12] = system: OE33 (Esophageal Adenocarcinoma); assay: as above
Procedure, shortened: as §1

[13] = system: NCI-H1355 (Lung Adenocarcinoma); assay: as above
Procedure, shortened: as §1

[14] = system: KOPN-8 (B-Lymphoblastic Leukemia); assay: as above
Procedure, shortened: as §1

EW-1 (Ewing's Sarcoma) = assay: as above
Procedure, shortened: as §1

[15] = system: NCI-H522 (Lung Adenocarcinoma); assay: as above
Procedure, shortened: as §1

[16] = system: Mo-T (Other Blood Carcinomas); assay: as above
Procedure, shortened: as §1

[17] = system: KGN (Other Solid Carcinomas); assay: as above
Procedure, shortened: as §1
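For Bliss excess, mean over the matrix in this document: after 72 h of two-drug dosing.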

SMILES	combination Emax [1]	combination Emax [2]	Bliss excess (Hey (Ovarian Carcinoma))	Bliss excess [3]	Bliss excess [4]	Bliss excess [5]	Bliss excess [6]	Bliss excess [7]	Bliss excess [8]	Bliss excess (SK-N-AS (Neuroblastoma))	Bliss excess [9]	Bliss excess [10]	Bliss excess [11]	Bliss excess [12]	Bliss excess [13]	Bliss excess [14]	Bliss excess (EW-1 (Ewing's Sarcoma))	Bliss excess [15]	Bliss excess [16]	Bliss excess [17]
CC1(C)CCC(CN2CCN(c3ccc(C(=O)NS(=O)(=O)c4ccc(NCC5CCOCC5)c([N+](=O)[O-])c4)c(Oc4cnc5[nH]ccc5c4)c3)CC2)=C(c2ccc(Cl)cc2)C1 [Venetoclax] + Cc1cc2ncnn2cc1Nc1ncc2c(n1)n(C1CCOCC1)c(=O)n2C [AZD7648] (first compound max 1 µM, 7x7, partner max 10 µM)	0.154	0.346	-0.0604	-0.0413	0.0355	-0.0185	-0.0583	-0.0223	0.0586	-0.0485	-0.172	-0.0514	-0.0314	-0.0449	-0.0124	0.0037	-0.008	-0.0232	0.0426	-0.0339
CC1(C)CCC(CN2CCN(c3ccc(C(=O)NS(=O)(=O)c4ccc(NCC5CCOCC5)c([N+](=O)[O-])c4)c(Oc4cnc5[nH]ccc5c4)c3)CC2)=C(c2ccc(Cl)cc2)C1 [Venetoclax] + CN(C)CCCOc1ccc(-c2ccc3ncc4c(c3c2)n(C2CCOCC2)c(=O)n4C)cn1 [AZD0156] (first compound max 1 µM, 7x7, partner max 1 µM)	0.219	0.296	-0.0255	-0.028	-0.0022	0.0004	-0.0681	-0.0204	0.0766	-0.0469	-0.0205	-0.0466	-0.0292	-0.033	-0.0429	-0.0498	0.0002	-0.0134	-0.0469	-0.0172
NC1(C(=O)N[C@@H](CCO)c2ccc(Cl)cc2)CCN(c2ncnc3[nH]ccc23)CC1 [Capivasertib] + CC(=O)c1c(C)c2cnc(Nc3ccc(N4CCNCC4)cn3)nc2n(C2CCCC2)c1=O [Palbociclib] (first compound max 10 µM, 7x7, partner max 10 µM)	0.259	0.472	0.0123	-0.0515	-0.0496	-0.0374	0.0642	-0.0849	0.0017	-0.0033	-0.0383	-0.0272	-0.0745	-0.0055	0.0107	-0.0079	-0.0124	-0.0696	-0.0271	0.0128
CC(=O)c1c(C)c2cnc(Nc3ccc(N4CCNCC4)cn3)nc2n(C2CCCC2)c1=O [Palbociclib] + Cc1c2c(nn1C)CSCc1cc(n(C)n1)CSc1cc(c3ccccc3c1)OCCCc1c(C(=O)O)n(C)c3c-2c(Cl)ccc13 [AZD5991] (first compound max 10 µM, 7x7, partner max 1 µM)	0.275	0.345	-0.0205	-0.0515	-0.0288	0.0579	0.0186	-0.0356	-0.0145	-0.006	-0.0465	-0.0363	-0.0746	-0.0041	-0.0147	0.0082	0.0294	-0.0258	-0.0208	-0.0665
COc1nnc2ccc(N3CCC(c4ccc(OCCN5CCN(C)C(=O)[C@H]5C)cc4)CC3)nn12 [AZD5153] + Cc1c2c(nn1C)CSCc1cc(n(C)n1)CSc1cc(c3ccccc3c1)OCCCc1c(C(=O)O)n(C)c3c-2c(Cl)ccc13 [AZD5991] (first compound max 1 µM, 7x7, partner max 1 µM)	0.242	0.358	-0.0231	-0.0082	0.0265	-0.044	-0.0106	0.0176	0.052	-0.0164	-0.058	-0.0482	0.0352	-0.0711	-0.0274	0.0112	0.0165	0.0012	-0.0592	-0.0364
CC(=O)c1c(C)c2cnc(Nc3ccc(N4CCNCC4)cn3)nc2n(C2CCCC2)c1=O [Palbociclib] + CC1(C)CCC(CN2CCN(c3ccc(C(=O)NS(=O)(=O)c4ccc(NCC5CCOCC5)c([N+](=O)[O-])c4)c(Oc4cnc5[nH]ccc5c4)c3)CC2)=C(c2ccc(Cl)cc2)C1 [Venetoclax] (first compound max 10 µM, 7x7, partner max 1 µM)	0.121	0.242	0.0511	-0.0558	-0.0554	-0.0926	0.0108	-0.177	-0.0899	-0.0354	-0.0402	-0.0653	-0.0212	-0.0458	-0.0031	-0.0341	0.0441	-0.0428	-0.0648	0.079
COc1nnc2ccc(N3CCC(c4ccc(OCCN5CCN(C)C(=O)[C@H]5C)cc4)CC3)nn12 [AZD5153] + Cn1cnc2c(F)c(Nc3ccc(Br)cc3Cl)c(C(=O)NOCCO)cc21 [Selumetinib] (first compound max 1 µM, 7x7, partner max 10 µM)	0.414	0.483	-0.0092	0.0012	0.236	-0.0175	-0.0228	-0.0469	0.0011	0.0307	-0.0084	-0.0365	0.0118	0.0318	0.0212	0.114	0.041	-0.042	-0.0656	-0.002
Cn1cnc2c(F)c(Nc3ccc(Br)cc3Cl)c(C(=O)NOCCO)cc21 [Selumetinib] + C[C@@H]1COCCN1C2=NC(=NC(=C2)C3(CC3)[S@](=N)(=O)C)C4=C5C=CNC5=NC=C4 [AZD6738] (first compound max 10 µM, 7x7, partner max 10 µM)	0.775	0.596	-0.0014	-0.0126	0.038	-0.0481	-0.0274	-0.0031	-0.0346	-0.0048	0.0406	-0.0303	0.0464	-0.018	-0.0213	-0.154	0.0014	-0.0653	-0.0055	-0.0817
C=CCn1c(=O)c2cnc(Nc3ccc(N4CCN(C)CC4)cc3)nc2n1-c1cccc(C(C)(C)O)n1 [AZD1775] + C[C@@H]1COCCN1C2=NC(=NC(=C2)C3(CC3)[S@](=N)(=O)C)C4=C5C=CNC5=NC=C4 [AZD6738] (first compound max 1 µM, partner max 10 µM)	0.819	0.777	0.0385	-0.0302	0.0917	-0.0203	-0.0727	0.0441	0.0279	0.0189	-0.0185	-0.002	0.0923	-0.0081	0.0055	-0.0006	0.0194	0.0006	-0.0271	-0.0578
COc1nnc2ccc(N3CCC(c4ccc(OCCN5CCN(C)C(=O)[C@H]5C)cc4)CC3)nn12 [AZD5153] + C[C@@H]1COCCN1C2=NC(=NC(=C2)C3(CC3)[S@](=N)(=O)C)C4=C5C=CNC5=NC=C4 [AZD6738] (first compound max 1 µM, 7x7, partner max 10 µM)	0.731	0.639	-0.0048	-0.0501	0.0137	-0.117	-0.0462	-0.0881	0.0792	0.002	0.0365	0.0195	0.0607	-0.0427	-0.006	-0.0114	0.0041	-0.0075	-0.0184	-0.0865
CCc1c2c(nc3ccc(O)cc13)-c1cc3c(c(=O)n1C2)COC(=O)[C@]3(O)CC [SN-38] + O=C(c1cc(Cc2n[nH]c(=O)c3ccccc23)ccc1F)N1CCN(C(=O)C2CC2)CC1 [Olaparib] (first compound max 0.3 µM, 7x7, partner max 10 µM)	0.587	0.366	0.0559	-0.0372	0.0738	0.0164	0.0628	0.0253	0.051	0.096	0.0246	0.0508	–	0.0383	0.0271	0.0271	0.0642	0.0909	0.0236	0.0691
Cc1c2c(nn1C)CSCc1cc(n(C)n1)CSc1cc(c3ccccc3c1)OCCCc1c(C(=O)O)n(C)c3c-2c(Cl)ccc13 [AZD5991] + C[C@@H](Nc1cc(F)cc(F)c1)c1cc(C(=O)N(C)C)cc2c(=O)cc(N3CCOCC3)oc12 [AZD8186] (first compound max 1 µM, 7x7, partner max 3 µM)	–	0.227	0.0023	-0.0089	-0.0011	-0.023	0.0246	-0.0479	0.0182	-0.0122	-0.0142	-0.0264	0.0026	-0.0003	-0.064	0.0014	-0.0431	0.0196	-0.0239	-0.0528
CS(=O)(=O)CCNCc1ccc(-c2ccc3ncnc(Nc4ccc(OCc5cccc(F)c5)c(Cl)c4)c3c2)o1 [Lapatinib] + NC1(c2ccc(-c3nc4ccn5c(=O)[nH]nc5c4cc3-c3ccccc3)cc2)CCC1 [MK-2206] (first compound max 10 µM, 7x7, partner max 10 µM)	0.849	0.286	–	0.0033	-0.0393	0.0825	-0.0147	–	0.0415	-0.0327	-0.0645	0.0098	–	-0.0133	0.0319	-0.0586	–	-0.0313	0.0719	0.0078
C=CCn1c(=O)c2cnc(Nc3ccc(N4CCN(C)CC4)cc3)nc2n1-c1cccc(C(C)(C)O)n1 [AZD1775] + CCc1c2c(nc3ccc(O)cc13)-c1cc3c(c(=O)n1C2)COC(=O)[C@]3(O)CC [SN-38] (first compound max 1 µM, partner max 0.3 µM)	0.734	0.659	–	-0.0303	-0.0448	-0.0617	0.0354	–	–	0.0032	-0.0126	-0.0817	–	-0.0694	-0.0622	–	–	0.0912	-0.0799	-0.114
C[C@@H](Oc1cc(-c2cnn(C3CCNCC3)c2)cnc1N)c1c(Cl)ccc(F)c1Cl [Crizotinib] + Cn1cnc2c(F)c(Nc3ccc(Br)cc3Cl)c(C(=O)NOCCO)cc21 [Selumetinib] (first compound max 10 µM, 7x7, partner max 10 µM)	0.539	0.388	–	0.0212	0.0221	-0.0021	0.0034	–	–	-0.0118	-0.0421	-0.0191	–	-0.0199	-0.0223	–	–	-0.0495	-0.047	-0.086

Reference: the supplement of paper PMC11061612
